Source: patent US12594349B2, “Compositions and methods for the targeting of PCSK9” (Scribe Therapeutics Inc., priority 2022, dated 2026)

Test system: human PCSK9 locus
Assay: Secreted PCSK9 by ELISA in Huh7 cells transfected with mRNA and gRNA
Format: cell-based
Details: Huh7 cells; for Percent reduction in PCSK9 secretion / Average percent reduction in PCSK9 secretion: LTRP5-ADD-ZIM3 mRNA; for Percent reduction in PCSK9 secretion: day 6, relative to non-targeting gRNA control; for Average percent reduction in PCSK9 secretion: day 6, averaged from the two doses; for Secreted PCSK9: 6 days post-transfection, normalized to total cell count
Description: To assess PCSK9 secretion, seeded Huh7 cells were transfected with mRNA encoding a catalytically-active CasX 676, dXR1, or LTRP5-ADD-ZIM3 and a gRNA with scaffold 316 and spacer targeting either the B2M or PCSK9 locus. Media supernatant was harvested at 6, 18, 36, and 87 days post-transfection to assess level of PCSK9 secretion by ELISA. Levels of PCSK9 secretion were normalized to total cell count. As an additional control, PCSK9 secretion was also measured in the media supernatant harvested from wells containing untreated, naïve cells.
The following three human hepatocyte cancer cell lines were used in this experiment: HepG2 cells, Hep3B cells, and Huh7 cells. ˜15,000 cells of each cell line were seeded per well; the next day, seeded cells were transfected with mRNA encoding a catalytically-active CasX 676, dXR1, or LTRP5-ADD-ZIM3 and a gRNA with scaffold 316 and spacer targeting either the B2M or PCSK9 locus (see Table 23 for specific spacers and sequences). Media supernatant was harvested at 4 days post-transfection to assess level of PCSK9 secretion by ELISA, and levels of PCSK9 secretion were normalized to total cell count and illustrated in FIGS. 11A-11C. Culturing of treated Huh7 cells continued, and media supernatant was harvested at 14 and 27 days post-transfection for measuring PCSK9 secretion by ELISA. As an additional experimental control, PCSK9 secretion was also measured in the media supernatant harvested from wells containing untreated, naïve cells.
To assess PCSK9 secretion, seeded Huh7 cells were co-transfected with mRNA encoding for LTRP5-ADD-ZIM3 and a gRNA with scaffold 316 and spacer targeting the PCSK9 locus using Lipofectamine™ 3000. Two doses of total RNA input at a 2:1 mass ratio of mRNA to gRNA were used for screening: 50 ng mRNA:25 ng gRNA and 25 ng mRNA:12.5 ng gRNA. Media supernatant was harvested at 6 days post-transfection to assess level of PCSK9 secretion by ELISA (Table 74). Levels of PCSK9 secretion were normalized to total cell count. As an additional control, PCSK9 secretion was also measured in the media supernatant harvested from cells transfected with mRNA encoding for mScarlet.

[1] = LTRP5-ADD-ZIM3 mRNA + gRNA scaffold 316, 25 ng mRNA:12.5 ng gRNA
[2] = LTRP5-ADD-ZIM3 mRNA + gRNA scaffold 316, 50 ng mRNA:25 ng gRNA

Row | Substance | Percent reduction in PCSK9 secretion (25 ng mRNA:12.5 ng gRNA) [%] | Percent reduction in PCSK9 secretion (50 ng mRNA:25 ng gRNA) [%] | Average percent reduction in PCSK9 secretion [%] | Secreted PCSK9 [1] [ng/mL] | Secreted PCSK9 [2] [ng/mL]
1 | Non-targeting (guide CGAGACGTAATTACGTCTCG; chemistry not given here) | 0 | 0 | 0 | – | –
2 | TG-06-002 (guide ACCGCUGCGCCAAGGUGCGG; listed as RNA, chemistry not given here) | – | 0.4 | – | – | –
3 | TG-06-004 (guide GCCAGGCCGUCCUCCUCGGA; listed as RNA, chemistry not given here) | 2.54 | 33.35 | 15.41 | 73.05 | 54.83
4 | TG-06-005 (guide GUGCUCGGGUGCUUCGGCCA; listed as RNA, chemistry not given here) | 7.19 | 18.47 | 5.64 | 76.37 | 67.08
5 | TG-06-117 (guide ACUUUGUUUGCAAAGACCUC; listed as RNA, chemistry not given here) | 37.62 | 16.16 | 10.73 | 98.05 | 68.98
6 | TG-06-118 (guide GAGUGAAAUGGCCUGCUCUG; listed as RNA, chemistry not given here) | 23.11 | 56.86 | 39.99 | 54.78 | 35.5
7 | TG-06-119 (guide GAGCAGGCCAUUUCACUCGG; listed as RNA, chemistry not given here) | 18.66 | 14.47 | 2.1 | 84.54 | 70.37
8 | TG-06-120 (guide CUCGGAAUCUGCUGUGCAUC; listed as RNA, chemistry not given here) | 32.67 | 73.95 | 53.31 | 47.97 | 21.43
9 | TG-06-121 (guide GGAAGGGCUGUCGAUACUGG; listed as RNA, chemistry not given here) | 47.89 | 65.57 | 56.73 | 37.13 | 28.33
10 | TG-06-122 (guide CCUUUGUUUCUUCCCAGUAU; listed as RNA, chemistry not given here) | 20.79 | 3.54 | 8.63 | 86.06 | 79.36
11 | TG-06-123 (guide UCCCAGUAUCGACAGCCCUU; listed as RNA, chemistry not given here) | 27.97 | 62.95 | 45.46 | 51.32 | 30.49
12 | TG-06-124 (guide CAGUAUCGACAGCCCUUCCA; listed as RNA, chemistry not given here) | 57.06 | 79.9 | 68.48 | 30.59 | 16.54
13 | TG-06-125 (guide AGAAAGAGCAAGCCUCAUGU; listed as RNA, chemistry not given here) | 35.28 | 69.7 | 52.49 | 46.11 | 24.93
14 | TG-06-126 (guide CCUUUUCAUCCUCCUGCCUG; listed as RNA, chemistry not given here) | 37.09 | 71.46 | 54.27 | 44.82 | 23.48
15 | TG-06-127 (guide UCCUCCUGCCUGGUACACAA; listed as RNA, chemistry not given here) | 31.08 | 72.56 | 51.82 | 49.1 | 22.57
16 | TG-06-128 (guide AGAAAUCAACUGGACAAGCA; listed as RNA, chemistry not given here) | 12.57 | 48.7 | 30.63 | 62.29 | 42.21
17 | TG-06-129 (guide UUUUACACACCAUGUUCAAG; listed as RNA, chemistry not given here) | 27.47 | 27.16 | 0.16 | 90.82 | 59.93
18 | TG-06-131 (guide UGAACAUGGUGUGUAAAAGG; listed as RNA, chemistry not given here) | 18.74 | 65.48 | 42.11 | 57.89 | 28.4
19 | TG-06-132 (guide AGAAGAUUCAAUUUGCAAAG; listed as RNA, chemistry not given here) | 5.29 | 31.11 | 12.91 | 75.01 | 56.68
20 | TG-06-134 (guide GAAUUCUAUGGUAGGCACAA; listed as RNA, chemistry not given here) | 19.37 | 46.77 | 33.07 | 57.45 | 43.79
21 | TG-06-135 (guide GGAAAGCUGAGCUUGUGCCU; listed as RNA, chemistry not given here) | 37.42 | 68.82 | 53.12 | 44.59 | 25.66
22 | TG-06-139 (guide AGGAGCAGCUAGUUGGUAAG; listed as RNA, chemistry not given here) | 64.28 | 81.73 | 73.01 | 25.45 | 15.03
